Experimental data reported in PMC6933707, “Palmitoylethanolamide counteracts substance P-induced mast cell activation in vitro by stimulating diacylglycerol lipase activity” (Journal of Neuroinflammation, 2019).
pKi: −log10 of the molar value. Where “and” joins values, the source holds several entries; their conditions need not be identical. Identical values can stand only once.

Tests used:
RBL-2H3 cells [1] = assay: Toluidine blue staining, percentage of degranulation; assay type: cell-based, rat
Experimental: SP-stimulated RBL-2H3 cells [plated on poly-L-lysine (33 μg/ml) coated slides (Deckglaser, 21 × 26 mm) into 6-well culture dishes at a cell density of 9 × 10^5 cells per well] were treated and incubated as described above for histamine release assay. After 15 min, the cells were fixed with paraformaldehyde at 4% for 20 min and incubated for 3 min with toluidine blue at 0.01% in 3% acetic acid. Subsequently, a 5 min wash in distilled water and dehydration in increasing alcohols (90%, 100%) were performed. Cells were then clarified by treatment with Xylol for 5 min and finally dried slides were mounted with the DPX histogram upright. The cells were observed using a Leica DMI6000 digital microscope, acquired using the Leica DFC 340FX digital camera connected to the microscope and analyzed using the LAS AF 2.2.0 software. Degranulated RBL-2H3 cells were counted and the percentage of degranulation (based on the number of colorable cells) was calculated.

RBL-2H3 cells [2] = assay: LC-APCI-MS measurement of endogenous AEA, 2-AG and PEA levels; assay type: cell-based, rat; conditions: for increase of endogenous levels of 2-AG: 15 min
Experimental: RBL-2H3 cells (9 × 10^5 cells/well) were stimulated with SP (10 μM) and treated with PEA (10 μM) in the presence and absence of OMDM188 (10 μM), for 15 min at 37 °C in 5% CO2 atmosphere. After 15 min, cells and supernatants were collected and homogenized in a solution of CHCl3/CH3OH/Tris-HCl 50 mM pH 7.4 (2:1:1, v/v) containing 10 pmol of [^2H]8-AEA, [^2H]5-2-AG and [^2H]4-PEA as internal standards. The lipid-containing organic phase was dried down, weighed and pre-purified by open-bed chromatography on silica gel. Fractions obtained by eluting the column with a solution of CHCl3/CH3OH (90:10 by vol.) were analyzed by Liquid Chromatography-Atmospheric Pressure Chemical Ionization-Mass Spectrometry (LC-APCI-MS) using a Shimadzu (Shimadzu, Kyoto, Japan) HPLC apparatus (LC-10ADVP) coupled to a Shimadzu (LCMS-2020) quadrupole MS via a Shimadzu APCI interface. LC-APCI-MS analyses of 2-AG and PEA were carried out in the selected ion monitoring mode, using m/z values of 356 and 348 (molecular ions + 1 for deuterated and undeuterated AEA), 384.35 and 379.35 (molecular ions + 1 for deuterated and undeuterated 2-AG), and 304 and 300 (molecular ions + 1 for deuterated and undeuterated PEA). AEA, 2-AG and PEA levels were calculated on the basis of their area ratio with the internal deuterated standard signal areas, and their amounts (pmol) were normalized per mg of lipid extract.

MGL = MGL enzyme activity assay (COS-7 cytosolic fractions); assay type: biochemical; conditions: up to 25 μM
Experimental: The 10,000×g cytosolic fractions obtained from COS-7 cells (100 μg of protein) were incubated with 2-arachidonoyl-[^3H]-glycerol (40 Ci/mmol, St. Louis, MO, USA) diluted with non-radiolabeled 2-AG (20 μM) in the presence of vehicle or increasing concentrations of PEA (0.1-25 μM), in Tris-HCl 50 mM pH 7.4 at 37 °C for 20 min [42]. After the incubation, the amounts of [^3H]-glycerol were measured in the aqueous phase [after extraction of the incubation mixture with 2 volumes of CHCl3/CH3OH (1:1, v/v)] by using Liquid Scintillation Analyzer (TRI-carb 2100TR).

human CB2 receptor [3] = target: T1, human CB2 receptor (Homo sapiens, UniProt P34972); assay: cAMP Hunter functional activity assay at the CB2 receptors; assay type: cell-based; set-up: host or cells: CHO-K1; conditions: 10 μM, highest concentration tested, CHO-K1 cells overexpressing human CB2
T1 sequence (P34972 whole entry): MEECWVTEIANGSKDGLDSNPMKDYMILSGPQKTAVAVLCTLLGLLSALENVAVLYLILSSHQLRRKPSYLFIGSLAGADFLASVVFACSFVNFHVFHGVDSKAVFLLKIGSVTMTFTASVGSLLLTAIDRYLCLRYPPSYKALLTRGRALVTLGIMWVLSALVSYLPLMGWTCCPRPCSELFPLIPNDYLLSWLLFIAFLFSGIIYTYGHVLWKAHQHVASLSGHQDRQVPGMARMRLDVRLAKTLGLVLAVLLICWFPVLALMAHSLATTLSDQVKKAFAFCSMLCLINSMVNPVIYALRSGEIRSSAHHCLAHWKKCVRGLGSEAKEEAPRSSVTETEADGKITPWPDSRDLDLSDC
Experimental: The cAMP Hunter™ eXpress G protein-coupled receptor (GPCR) assay was performed in Chinese Hamster Ovary (CHO)-Kl cells overexpressing the human CB2 receptor. Gi-coupled cAMP modulation was measured following the manufacturer’s protocol (DiscoverX, Fremont, CA). CHO-K1 cells overexpressing the human CB2 receptor were plated into a 96-well plate (3× 10^4 cells/well) and incubated overnight at 37 °C in 5% CO2 atmosphere. The media were aspirated and replaced with 30 μl of assay buffer. Cells were incubated 30 min at 37 °C with 15 μl of 3× concentration-response solutions of 2-AG (0.01–50 μM), or PEA (10 μM), prepared in presence of cell assay buffer containing a 3× of 25 μM NKH-477 solution (a water-soluble analog of Forskolin) to stimulate adenylate cyclase and enhance basal cAMP levels. We also investigated the effect of PEA on 2-AG receptor activation by co-incubation. Therefore, cells were also incubated 30 min at 37 °C with 2-AG and PEA (10 μM) in the presence of NKH-477 to stimulate adenylate cyclase and enhance cAMP levels. […] Relative luminescence units (RLU) were measured by using a GloMax Multi Detection System (Promega Italia). […] The percentage of response was calculated by using the following formula: % RESPONSE = 100% × (1-(RLU of test compound-RLU of NKH-477 positive control)/(RLU of vehicle-RLU of NKH-477 positive control).

human CB2 receptor [4] = target: T1, human CB2 receptor; assay: Competition binding assay for CB2 receptors ([3H]-CP-55,940 displacement); set-up: purchased Perkin Elmer; host or cells: HEK-293
Description: Data were expressed as Ki (μM) and calculated by applying the Cheng-Prusoff equation to the IC50 values for the displacement of the bound radioligand.

Compound: CCCCCCCCCCCCCCCC(=O)NCCO [PEA, Palmitoylethanolamide]
- number of degranulated cells (RBL-2H3 cells [1]; SP (10 μM)-stimulated cells, compound 0.1 μM, 15 min, vs SP + vehicle): comparable
- number of degranulated cells (RBL-2H3 cells [1]; SP (10 μM)-stimulated cells, compound 10 μM, 15 min, vs SP + vehicle): reduced the number of SP-degranulated RBL-2H3 cells
- number of degranulated cells (RBL-2H3 cells [1]; SP-stimulated cells co-treated with PEA 0.1 μM and 2-AG 0.1 μM, 15 min): able to reduce
- number of degranulated cells (RBL-2H3 cells [1]; SP-stimulated cells co-treated with PEA 10 μM and AM630 0.1 μM, vs SP + vehicle or SP + AM630): comparable
- number of degranulated cells (RBL-2H3 cells [1]; substance alone 10 μM, 15 min, vs vehicle): no effect
- increase of endogenous levels of 2-AG (RBL-2H3 cells [2]; PEA 10 μM alone, in the absence of SP, compared to vehicle-treated cells): 1.8 fold and ~ 2 fold
- estimated increase of 2-AG concentration in cells (RBL-2H3 cells [2]; SP-stimulated cells treated with PEA 10 μM vs unstimulated cells): 0.5 µM
- increase of endogenous levels of 2-AG (RBL-2H3 cells [2]; SP-stimulated cells treated with PEA 10 μM, compared to SP-stimulated cells treated with PEA vehicle): 1.6 fold and ~ 2 fold
- increase of endogenous levels of 2-AG (RBL-2H3 cells [2]; SP-stimulated cells treated with PEA 10 μM, compared to cells only treated with vehicle): 1.4 fold
- endogenous levels of AEA (RBL-2H3 cells [2]; SP-stimulated cells treated with PEA 10 μM, vs SP + PEA vehicle): no statistically significant increase
- estimated concentration of 2-AG in cells (RBL-2H3 cells [2]; SP-stimulated cells treated with PEA 10 μM, estimated from 1 mg lipids per 10 mg (10 μl) cell pellet, 0.7 μM in unstimulated cells): about 1.2 μM
- increase of levels of AEA (RBL-2H3 cells [2]; unstimulated cells following PEA treatment (discussion)): ~ 2 fold
- endogenous levels of AEA (RBL-2H3 cells [2]; unstimulated cells treated with PEA alone 10 μM, vs vehicle): statistically significant increase
- inhibitory effect on MGL activity (MGL): no inhibitory effect
- maximal % inhibition of MGL activity (MGL): < 5%
- effect on NKH-477-induced cAMP levels (CB2 activation) (human CB2 receptor [3]): failed at decreasing cAMP levels
- [3H]-CP55,940 displacement (human CB2 receptor [4]; PEA 10 μM per se, WIN55,212-2 10 μM = 100% displacement): 33.51 ± 5.28%
- pKi (human CB2 receptor [4]; compound alone, displacement of [3H]-CP-55,940, HEK-293 membranes, 90 min 30 °C): < 5.00
